Source: patent US20240122978A1, “RETROVIRAL VECTOR FOR UNIVERAL RECEPTOR THERAPY” (Umoja BioPharma, Inc., priority 2019, published 2024)
Entries after “also recorded” stand apart in the source; their conditions may differ.

System: CAR-expressing T cells
Test: Assessment of CAR expression and activation by flow cytometry
Assay type: cell-based
Conditions: FITC coated beads or plate bound FITC; FIGS. 2A-2F
Procedure: Cells were transferred to individual wells of a 96-well V-bottom plate, the plate was spun at 400×g for 5 min, cells were washed with 200 μL PBS and spun again at 400×g for 5 min. Cells were incubated for 10 min at room temperature in 50 μL/well Zombie NIR Fixable Viability Dye (diluted 1:3000 in PBS). Cells were then washed with […] buffer (1×PBS+2% FBS) and the plate was spun at 400×g for 5 min. Next, 50 μL/well of surface stain in FACS buffer were added to the cells and incubated for 45 min at 4° C.
Cells were washed with 150 μL FACS buffer and the plate was spun at 400×g for 5 min. Cells were then fixed with 100 μL/well of BD Cytofix/Cytoperm buffer for 20 min at 4° C. Cells were then washed with 100 μL BD Perm/Wash diluted 10-fold in water and the plate was spun at 400×g for 5 min. Cells were washed again with 200 μL BD Perm/Wash diluted 10-fold in water and the plate was spun again at 400×g for 5 min. 50 μL/well of intracellular stain in 1×BD Perm/Wash was added to the cells and incubated for 30 min at 4° C. Cells were washed with 150 μL, FACS buffer, the plate was spun at 400×g for 5 min and the cells were resuspended in 200 μL FACS buffer for analysis using a Beckman Coulter CytoFLEX S cytometer. As depicted in FIGS. 2A-2F, CAR-expressing T cells expand in the presence of the antigen FITC and this expansion is enhanced with rapamycin. […]

Question: fluorescein isothiocyanate [FITC] was tested. Which “expansion/enrichment of CAR-expressing T cells in the presence of the antigen FITC” value did it give?
Answer: The value was “enriched; also recorded: enhanced expansion and activation; also recorded: expand”.
